Results as given in patent US20240252506A1 (Hoffmann-La Roche Inc., priority 2021, published 2024).
Values after ≈ are worked out from the molar mass of the structure shown.

System: Escherichia coli ATCC 25922
Assay: Minimal Inhibitory Concentration (MIC) determination, broth microdilution (CLSI M07-A10)
Format: cell-based
Settings: lowest concentration for complete growth inhibition (no visible growth); for MIC: Escherichia coli, ATCC25922, strain Escherichia coli ATCC 25922, 18-24 hours at 35±2° C., read-out: Escherichia coli growth inhibition MIC; for Escherichia coli growth inhibition MIC: strain Escherichia coli ATCC 25922, 18-24 hours at 35±2° C.
Method: Minimal Inhibitory Concentration (MIC) Determination:
The MIC of antibacterial compounds against multiple species and strains was determined using the broth microdilution method according to M07-A10 Clinical and Laboratory Standards Institute (CLSI) guidelines, using the appropriate broth medium. In short, the compound plates were prepared by dispensing 100 μL of each stock solution in the first well of a 96 well microtiter plate (MTP) at a concentration 100-fold higher than the final concentration desired in broth. Eleven serial 2-fold dilutions of the highest concentration were made in DMSO for new compounds and in water (or appropriate solution) for reference compounds [2]. 1 μL of each well was transferred in a new MTP, which served as the test plate by subsequent inoculation. This bacterial suspension was prepared from strains that were first sub-cultured on agar plates and incubated for 18-24 hours as appropriate. Following incubation, the inoculum was prepared from isolated colonies and adjusted to 0.5 McFarland turbidity standard (1 to 2×10^8 Colony Forming Units (CFU)/mL) in 0.9% saline. The bacterial suspension was then diluted 1:200 in appropriate sterile medium and within 15 minutes 100 μL/well were dispensed. Negative controls (lack of bacterial cells) and growth control wells (lack of compound) were included in all plates. MTPs were incubated for 18-24 hours at 35±2° C. in ambient air. The MIC value of each compound, expressed as μg/mL, was determined as the lowest concentration required for complete growth inhibition (no visible growth). • [1] CLSI (2015) Methods for dilution antimicrobial susceptibility tests for bacteria that grow aerobically; Approved Standard, Tenth Edition. CLSI Document M7-A10 (ISBN 1-56238-987-4). Wayne, PA: Clinical and Laboratory Standards Institute, 19087, USA. • [2] CLSI (2017) Performance Standards for Antimicrobial Susceptibility Testing; Twenty-Fifth Informational Supplement. CLSI Document M100-S27, CLSI, Wayne, Pennsylvania 19087, USA.
Table 1 provides the Minimal Inhibitory Concentrations (MIC) in micrograms per millilitre of the compounds of present invention obtained against the strain Escherichia coli ATCC 25922.

SMILES	MIC	Escherichia coli growth inhibition MIC
CNCc1nc2cc3c(c(F)c2[nH]1)CC(CN1CCC2(CC1)CN(c1cnc4c(n1)NC(=O)CO4)C(=O)O2)C3 (single isomer, unassigned) [Example 59, 6-[8-[[8-Fluoro-2-(methylaminomethyl)-1,5,6,7-tetrahydrocyclopenta[f]benzimidazol-6-yl]methyl]-2-oxo-1-oxa-3,8-diazaspiro[4.5]decan-3-yl]-4H-pyrazino[2,3-b][1,4]oxazin-3-one]	0.125 µg/mL (≈ 0.233 µM)	–
CNC(CO)c1nc2c(F)c3c(c(F)c2[nH]1)CC(CN1CCC2(CC1)CN(c1cnc4c(n1)NC(=O)CO4)C(=O)O2)C3 (single isomer, unassigned) [Example 66, 6-[8-[[4,8-Difluoro-2-[2-hydroxy-1-(methylamino)ethyl]-3,5,6,7-tetrahydrocyclopenta[f]benzimidazol-6-yl]methyl]-2-oxo-1-oxa-3,8-diazaspiro[4.5]decan-3-yl]-4H-pyrazino[2,3-b][1,4]oxazin-3-one]	0.25 µg/mL (≈ 0.428 µM)	–
CNC(CO)c1nc2c(F)c3c(c(F)c2[nH]1)CC(CN1CCC2(CC1)CN(c1cnc4c(n1)NC(=O)CO4)C(=O)O2)C3 (single isomer, unassigned) [Example 67, 6-[8-[[4,8-Difluoro-2-[2-hydroxy-1-(methylamino)ethyl]-3,5,6,7-tetrahydrocyclopenta[f]benzimidazol-6-yl]methyl]-2-oxo-1-oxa-3,8-diazaspiro[4.5]decan-3-yl]-4H-pyrazino[2,3-b][1,4]oxazin-3-one]	–	0.25 µg/mL
NCCn1nnc2cc3c(c(F)c21)CC(CN1CCC2(CC1)CN(c1cnc4c(n1)NC(=O)CO4)C(=O)O2)C3 (single isomer, unassigned) [Example 81, 6-[2-oxo-8-[[1-(2-aminoethyl)-8-fluoro-6,7-dihydro-5H-cyclopenta[f]benzotriazol-6-yl]methyl]-1-oxa-3,8-diazaspiro[4.5]decan-3-yl]-4H-pyrazino[2,3-b][1,4]oxazin-3-one]	–	≤0.06 µg/mL
NCCn1nnc2cc3c(c(F)c21)CC(CN1CCC2(CC1)CN(c1cnc4c(n1)NC(=O)CO4)C(=O)O2)C3 (single isomer, unassigned) [Example 82, 6-[2-oxo-8-[[1-(2-aminoethyl)-8-fluoro-6,7-dihydro-5H-cyclopenta[f]benzotriazol-6-yl]methyl]-1-oxa-3,8-diazaspiro[4.5]decan-3-yl]-4H-pyrazino[2,3-b][1,4]oxazin-3-one]	–	0.125 µg/mL
CNCCn1nc2cc(F)c3c(c2n1)CC(CN1CCC2(CC1)CN(c1cnc4c(n1)NC(=O)CO4)C(=O)O2)C3 (single isomer, unassigned) [Example 86, 6-[8-[[5-fluoro-2-[2-(methylamino)ethyl]-7.8-dihydro-6H-cyclopenta[e]benzotriazol-7-yl]methyl]-2-oxo-1-oxa-3,8-diazaspiro[4.5]decan-3-yl]-4H-pyrazino[2,3-b][1,4]oxazin-3-one]	–	≤0.06 µg/mL
CNCCn1nc2cc(F)c3c(c2n1)CC(CN1CCC2(CC1)CN(c1cnc4c(n1)NC(=O)CO4)C(=O)O2)C3 (single isomer, unassigned) [Example 87, 6-[8-[[5-fluoro-2-[2-(methylamino)ethyl]-7,8-dihydro-6H-cyclopenta[e]benzotriazol-7-yl]methyl]-2-oxo-1-oxa-3,8-diazaspiro[4.5]decan-3-yl]-4H-pyrazino[2,3-b][1,4]oxazin-3-one]	–	0.125 µg/mL
C[C@H](N)Cn1nc2cc(F)c3c(c2n1)CC(CN1CCC2(CC1)CN(c1cnc4c(n1)NC(=O)CO4)C(=O)O2)C3 (single isomer, unassigned) [Example 88]	–	≤0.06 µg/mL
C[C@H](N)Cn1nc2cc(F)c3c(c2n1)CC(CN1CCC2(CC1)CN(c1cnc4c(n1)NC(=O)CO4)C(=O)O2)C3 (single isomer, unassigned) [Example 89]	–	0.125 µg/mL
CNCc1nc2cc3c(c(F)c2o1)CC(CN1CCC2(CC1)CN(c1cnc4c(n1)NC(=O)CO4)C(=O)O2)C3 (single isomer, unassigned) [Example 94, 6-[8-[[8-fluoro-2-(methylaminomethyl)-6,7-dihydro-5H-cyclopenta[f][1,3]benzoxazol-6-yl]methyl]-2-keto-1-oxa-3,8-diazaspiro[4.5]decan-3-yl]-4H-pyrazino[2,3-b][1,4]oxazin-3-one]	–	0.25 µg/mL
CNCc1nc2cc3c(c(F)c2o1)CC(CN1CCC2(CC1)CN(c1cnc4c(n1)NC(=O)CO4)C(=O)O2)C3 (single isomer, unassigned) [Example 95, 6-[8-[[8-fluoro-2-(methylaminomethyl)-6,7-dihydro-5H-cyclopenta[f][1,3]benzoxazol-6-yl]methyl]-2-keto-1-oxa-3,8-diazaspiro[4.5]decan-3-yl]-4H-pyrazino[2,3-b][1,4]oxazin-3-one]	0.25 µg/mL (≈ 0.465 µM)	–
O=C1COc2ncc(N3CC4(CCN(CC5Cc6cc7nc(CN8CC(O)C8)oc7c(F)c6C5)CC4)OC3=O)nc2N1 (single isomer, unassigned) [Example 98, 6-[8-[[8-fluoro-2-[(3-hydroxyazetidin-1-yl)methyl]-6,7-dihydro-5H-cyclopenta[f][1,3]benzoxazol-6-yl]methyl]-2-oxo-1-oxa-3,8-diazaspiro[4.5]decan-3-yl]-4H-pyrazino[2,3-b][1,4]oxazin-3-one]	0.5 µg/mL (≈ 0.863 µM)	–
O=C1COc2ncc(N3CC4(CCN(CC5Cc6cc7nc(CN8CC(O)C8)oc7c(F)c6C5)CC4)OC3=O)nc2N1 (single isomer, unassigned) [Example 99, 6-[8-[[8-fluoro-2-[(3-hydroxyazetidin-1-yl)methyl]-6,7-dihydro-5H-cyclopenta[f][1,3]benzoxazol-6-yl]methyl]-2-oxo-1-oxa-3,8-diazaspiro[4.5]decan-3-yl]-4H-pyrazino[2,3-b][1,4]oxazin-3-one]	–	1 µg/mL
O=C1COc2ncc(N3CC4(CCN(CC5Cc6cc7nc(C8CNC8)oc7c(F)c6C5)CC4)OC3=O)nc2N1 (single isomer, unassigned) [Example 100, 6-[2-oxo-8-[[2-(azetidin-3-yl)-8-fluoro-6,7-dihydro-5H-cyclopenta[f][1,3]benzoxazol-6-yl]methyl]-1-oxa-3,8-diazaspiro[4.5]decan-3-yl]-4H-pyrazino[2,3-b][1,4]oxazin-3-one]	0.125 µg/mL (≈ 0.227 µM)	–
O=C1COc2ncc(N3CC4(CCN(CC5Cc6cc7nc(C8CNC8)oc7c(F)c6C5)CC4)OC3=O)nc2N1 (single isomer, unassigned) [Example 101, 6-[2-oxo-8-[[2-(azetidin-3-yl)-8-fluoro-6,7-dihydro-5H-cyclopenta[f][1,3]benzoxazol-6-yl]methyl]-1-oxa-3,8-diazaspiro[4.5]decan-3-yl]-4H-pyrazino[2,3-b][1,4]oxazin-3-one]	–	0.25 µg/mL
NCCc1nc2cc3c(c(F)c2o1)CC(CN1CCC2(CC1)CN(c1cnc4c(n1)NC(=O)CO4)C(=O)O2)C3 (single isomer, unassigned) [Example 102, 6-[8-[[2-(2-aminoethyl)-8-fluoro-6,7-dihydro-5H-cyclopenta[f][1,3]benzoxazol-6-yl]methyl]-2-oxo-1-oxa-3,8-diazaspiro[4.5]decan-3-yl]-4H-pyrazino[2,3-b][1,4]oxazin-3-one]	–	0.125 µg/mL
NCCc1nc2cc3c(c(F)c2o1)CC(CN1CCC2(CC1)CN(c1cnc4c(n1)NC(=O)CO4)C(=O)O2)C3 (single isomer, unassigned) [Example 103, 6-[8-[[2-(2-aminoethyl)-8-fluoro-6,7-dihydro-5H-cyclopenta[f][1,3]benzoxazol-6-yl]methyl]-2-oxo-1-oxa-3,8-diazaspiro[4.5]decan-3-yl]-4H-pyrazino[2,3-b][1,4]oxazin-3-one]	–	≤0.06 µg/mL
NCc1nc2cc3c(c(F)c2o1)CC(CN1CCC2(CC1)CN(c1cnc4c(n1)NC(=O)CO4)C(=O)O2)C3 (single isomer, unassigned) [Example 104, 6-[2-oxo-8-[[2-(aminomethyl)-8-fluoro-6,7-dihydro-5H-cyclopenta[f][1,3]benzoxazol-6-yl]methyl]-1-oxa-3,8-diazaspiro[4.5]decan-3-yl]-4H-pyrazino[2,3-b][1,4]oxazin-3-one]	0.125 µg/mL (≈ 0.239 µM)	–
NCc1nc2cc3c(c(F)c2o1)CC(CN1CCC2(CC1)CN(c1cnc4c(n1)NC(=O)CO4)C(=O)O2)C3 (single isomer, unassigned) [Example 105, 6-[2-oxo-8-[[2-(aminomethyl)-8-fluoro-6,7-dihydro-5H-cyclopenta[f][1,3]benzoxazol-6-yl]methyl]-1-oxa-3,8-diazaspiro[4.5]decan-3-yl]-4H-pyrazino[2,3-b][1,4]oxazin-3-one]	–	0.25 µg/mL
O=C1COc2ncc(N3CC4(CCN(CC5Cc6cc7nc([C@@H]8CCN8)oc7c(F)c6C5)CC4)OC3=O)nc2N1 (single isomer, unassigned) [Example 106]	0.125 µg/mL (≈ 0.227 µM)	–
